Experimental data as given in ChEMBL document CHEMBL5532651, “HDAC specificity and kinase off-targeting by purine-benzohydroxamate anti-hematological tumor agents” (Eur J Med Chem, 2024).
One block for each compound: values may come before it. Calls of active or inactive are those of the source. The rule behind the calls is not given here.

Key:
HCT-116 = test: cells; details: Homo sapiens
NAMALVA [1] = test: cells; details: Homo sapiens
MCF7 = test: cells; format: functional, cell-based; details: Homo sapiens
Jurkat [2] = test: cells; details: Homo sapiens
[3] = Stability in human liver microsome assessed as half life at 1 uM measured for 60 mins by LC-MS/MS analysis; format: ADME; details: liver microsomes
[4] = target: T1, Protein deacetylase HDAC6 (Homo sapiens) (UniProt Q9UBN7); test: Inhibition of HDAC6 in human U-937 cells assessed as increase in acetyl-histone H3 level at IC50 incubated for 48 hrs by Western blot analysis; format: cell-based
T1 sequence (whole entry): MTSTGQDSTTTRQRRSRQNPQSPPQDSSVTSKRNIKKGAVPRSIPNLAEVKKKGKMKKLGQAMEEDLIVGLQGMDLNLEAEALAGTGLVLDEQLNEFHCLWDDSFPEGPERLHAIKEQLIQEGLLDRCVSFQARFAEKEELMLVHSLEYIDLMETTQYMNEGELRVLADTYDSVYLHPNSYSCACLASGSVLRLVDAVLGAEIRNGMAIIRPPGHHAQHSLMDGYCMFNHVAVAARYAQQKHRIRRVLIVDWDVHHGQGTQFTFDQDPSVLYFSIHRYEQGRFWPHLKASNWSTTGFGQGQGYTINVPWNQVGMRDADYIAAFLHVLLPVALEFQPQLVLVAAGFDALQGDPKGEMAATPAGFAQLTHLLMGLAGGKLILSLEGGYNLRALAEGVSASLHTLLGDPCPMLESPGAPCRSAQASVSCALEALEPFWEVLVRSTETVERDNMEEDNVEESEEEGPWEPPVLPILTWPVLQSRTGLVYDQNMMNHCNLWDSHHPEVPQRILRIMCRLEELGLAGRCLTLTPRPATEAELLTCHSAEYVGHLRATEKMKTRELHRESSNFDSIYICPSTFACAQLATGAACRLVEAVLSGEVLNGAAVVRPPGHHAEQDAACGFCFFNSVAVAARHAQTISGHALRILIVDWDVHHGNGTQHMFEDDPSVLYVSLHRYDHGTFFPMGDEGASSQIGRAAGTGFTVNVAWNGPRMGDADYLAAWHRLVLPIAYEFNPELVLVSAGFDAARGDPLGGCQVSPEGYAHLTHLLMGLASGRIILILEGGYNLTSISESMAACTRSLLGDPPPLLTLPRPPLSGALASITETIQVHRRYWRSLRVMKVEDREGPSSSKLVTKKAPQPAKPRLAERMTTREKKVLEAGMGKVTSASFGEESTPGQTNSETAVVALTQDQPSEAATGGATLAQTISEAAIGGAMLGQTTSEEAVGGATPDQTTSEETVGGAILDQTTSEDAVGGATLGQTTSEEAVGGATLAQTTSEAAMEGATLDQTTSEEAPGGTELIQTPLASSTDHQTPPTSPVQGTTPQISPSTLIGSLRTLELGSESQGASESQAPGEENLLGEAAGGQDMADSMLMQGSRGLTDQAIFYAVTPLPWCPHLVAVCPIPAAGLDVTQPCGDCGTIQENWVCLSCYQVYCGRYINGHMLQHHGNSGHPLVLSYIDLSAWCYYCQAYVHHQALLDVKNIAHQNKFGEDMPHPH

[5] = target: T1, Protein deacetylase HDAC6 (Homo sapiens); test: Inhibition of HDAC6 in human Jurkat cells assessed as increase in acetyl-histone H3 level at IC50 incubated for 48 hrs by Western blot analysis; format: cell-based
[6] = Stability in human liver microsome assessed as intrinsic clearance at 1 uM measured for 60 mins by LC-MS/MS analysis; format: ADME; details: liver microsomes, read-out: CLH
U-937 [7] = test: Inhibition of cell proliferation of human U-937 cells assessed as reduction in Ki-67 expression at IC50 measured after 48 hrs by flow cytometry; format: functional, cell-based
U-937 [8] = test: Induction of apoptosis in human U-937 cells at IC50 measured after 48 hrs by flow cytometry; format: functional, cell-based
[9] = target: T1, Protein deacetylase HDAC6 (Homo sapiens); test: Inhibition of HDAC6 in human U-937 cells assessed as increase in acetyl-alpha-tubulin level at IC50 incubated for 48 hrs by Western blot analysis; format: cell-based
[10] = target: T1, Protein deacetylase HDAC6 (Homo sapiens); test: Inhibition of HDAC6 in human NAMALVA cells assessed as increase in acetyl-histone H3 level at IC50 incubated for 48 hrs by Western blot analysis; format: cell-based
NAMALVA [11] = test: Cytotoxicity against human NAMALVA cells assessed as cell growth inhibition at 0.04 to 17.4 uM by MTT assay; format: functional, cell-based; details: dose 0.04-17.4 µM, time lower 24.0 hrs, time upper […], TDE = time-dependent effect
[12] = target: T1, Protein deacetylase HDAC6 (Homo sapiens); test: Inhibition of HDAC6 in human NAMALVA cells assessed as increase in acetyl-alpha-tubulin level at IC50 incubated for 48 hrs by Western blot analysis; format: cell-based
CYP2C9 = CYP2C9 (Homo sapiens, UniProt P11712); test: Inhibition of CYP2C9 in liver microsomes (unknown origin) at 10 uM incubated for 10 mins relative to control; format: ADME, Microsome
CYP2C9, sequence (P11712 whole entry): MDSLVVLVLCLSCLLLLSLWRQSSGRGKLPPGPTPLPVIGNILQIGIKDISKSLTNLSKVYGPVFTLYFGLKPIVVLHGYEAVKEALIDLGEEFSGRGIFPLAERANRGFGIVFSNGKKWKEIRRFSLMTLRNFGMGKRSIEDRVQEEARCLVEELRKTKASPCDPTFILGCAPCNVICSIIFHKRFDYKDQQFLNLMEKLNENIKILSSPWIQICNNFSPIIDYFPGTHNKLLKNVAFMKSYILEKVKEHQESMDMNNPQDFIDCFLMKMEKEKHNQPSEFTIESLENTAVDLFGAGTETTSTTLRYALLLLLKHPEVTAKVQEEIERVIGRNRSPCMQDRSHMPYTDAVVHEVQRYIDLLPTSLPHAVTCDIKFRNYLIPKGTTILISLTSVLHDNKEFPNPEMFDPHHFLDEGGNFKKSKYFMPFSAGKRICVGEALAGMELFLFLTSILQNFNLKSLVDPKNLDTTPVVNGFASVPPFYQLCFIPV

U-937 [13] = test: Cytotoxicity against human U-937 cells assessed as cell growth inhibition at 1.6 to 6.4 uM by MTT assay; format: functional, cell-based; details: dose 1.6-6.4 µM, time lower 24.0 hrs, time upper […], TDE = time-dependent effect
NAMALVA [14] = test: Induction of apoptosis in human NAMALVA cells at IC50 measured after 48 hrs by flow cytometry; format: functional, cell-based
NAMALVA [15] = test: Inhibition of cell proliferation of human NAMALVA cells assessed as reduction in Ki-67 expression at IC50 measured after 48 hrs by flow cytometry; format: functional, cell-based
CYP2D6 = CYP2D6 (Homo sapiens, UniProt P10635); test: Inhibition of CYP2D6 in liver microsomes (unknown origin) at 10 uM incubated for 10 mins relative to control; format: ADME, Microsome
CYP2D6, sequence (P10635 whole entry): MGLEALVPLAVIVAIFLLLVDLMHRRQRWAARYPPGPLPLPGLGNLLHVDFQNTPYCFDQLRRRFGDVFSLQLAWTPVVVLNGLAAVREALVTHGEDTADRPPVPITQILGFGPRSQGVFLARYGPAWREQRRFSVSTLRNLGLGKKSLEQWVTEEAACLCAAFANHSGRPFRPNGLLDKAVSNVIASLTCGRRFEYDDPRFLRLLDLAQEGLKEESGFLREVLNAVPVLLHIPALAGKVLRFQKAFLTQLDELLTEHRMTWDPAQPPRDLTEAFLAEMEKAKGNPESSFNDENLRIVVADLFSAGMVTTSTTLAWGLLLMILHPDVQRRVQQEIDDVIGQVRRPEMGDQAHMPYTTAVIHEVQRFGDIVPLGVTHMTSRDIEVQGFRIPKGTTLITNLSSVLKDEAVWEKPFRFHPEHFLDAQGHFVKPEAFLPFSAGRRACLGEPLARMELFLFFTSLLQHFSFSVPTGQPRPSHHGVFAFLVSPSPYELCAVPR

[16] = Stability in mouse liver microsome assessed as intrinsic clearance at 1 uM measured for 60 mins by LC-MS/MS analysis; format: ADME; details: liver microsomes, read-out: CLH
CYP1A2 [17] = target: T2, CYP1A2 (Homo sapiens, UniProt P05177); test: Inhibition of CYP1A2 in liver microsomes (unknown origin) at 10 uM incubated for 10 mins relative to control; format: ADME, Microsome
T2 sequence (P05177 whole entry): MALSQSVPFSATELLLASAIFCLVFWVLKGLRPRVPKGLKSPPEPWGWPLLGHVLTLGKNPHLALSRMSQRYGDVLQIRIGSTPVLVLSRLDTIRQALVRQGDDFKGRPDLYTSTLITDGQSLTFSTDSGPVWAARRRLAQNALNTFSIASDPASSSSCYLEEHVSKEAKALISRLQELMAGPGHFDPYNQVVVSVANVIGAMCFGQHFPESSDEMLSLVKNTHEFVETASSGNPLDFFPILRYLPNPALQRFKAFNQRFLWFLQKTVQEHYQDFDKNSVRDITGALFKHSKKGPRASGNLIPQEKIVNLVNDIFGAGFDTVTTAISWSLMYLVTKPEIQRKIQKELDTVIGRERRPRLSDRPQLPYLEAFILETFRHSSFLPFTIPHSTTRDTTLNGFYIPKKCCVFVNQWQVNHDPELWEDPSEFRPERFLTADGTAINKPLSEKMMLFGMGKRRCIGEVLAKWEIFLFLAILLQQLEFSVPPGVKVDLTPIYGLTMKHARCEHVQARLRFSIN

Jurkat [18] = test: Cytotoxicity against human Jurkat cells assessed as cell growth inhibition at 0.03 to 1.8 uM by MTT assay; format: functional, cell-based; details: dose 0.03-1.8 µM, time lower 24.0 hrs, time upper […], TDE = time-dependent effect
[19] = target: T3, Protein deacetylase HDAC6 (Homo sapiens, UniProt Q9UBN7); test: Inhibition of full-length recombinant human HDAC6 expressed in baculovirus infected Sf9 cells using RHKK(Ac)AMC as substrate preincubated for 5 to 10 mins followed by substrate addition measured after 2 hrs by fluorescence based assay
T3 sequence (Q9UBN7 whole entry): T1 sequence (whole entry)

Jurkat [20] = test: Induction of apoptosis in human Jurkat cells at IC50 measured after 48 hrs by flow cytometry; format: functional, cell-based
U-937 [21] = test: Cytotoxicity against human U-937 cells assessed as cell growth inhibition incubated for 24 to 72 hrs by MTT assay; format: functional, cell-based; details: time lower 24.0 hrs, time upper […]
Jurkat [22] = test: Inhibition of cell proliferation of human Jurkat cells assessed as reduction in Ki-67 expression at IC50 measured after 48 hrs by flow cytometry; format: functional, cell-based
[23] = Stability in mouse liver microsome assessed as half life at 1 uM measured for 60 mins by LC-MS/MS analysis; format: ADME; details: liver microsomes
[24] = target: T1, Protein deacetylase HDAC6 (Homo sapiens); test: Inhibition of HDAC6 in human Jurkat cells assessed as increase in acetyl-alpha-tubulin level at IC50 incubated for 48 hrs by Western blot analysis; format: cell-based
CYP1A2 [25] = target: T2, CYP1A2; test: Inhibition of CYP1A2 in liver microsomes (unknown origin) at 40 uM incubated for 10 mins relative to control; format: ADME, Microsome
[26] = target: T3, Protein deacetylase HDAC6; test: Inhibition of HDAC6 (unknown origin)

IC50 (HCT-116): > 50 µM
IC50 (NAMALVA [1]): 0.13 µM
IC50 (MCF7): > 50 µM
IC50 (Jurkat [2]): 0.2 µM
SMILES: O=C(NO)c1ccc(Cn2cnc3c(Nc4ccccc4)ncnc32)cc1

IC50 (HCT-116): > 50 µM
IC50 (NAMALVA [1]): > 50 µM
IC50 (MCF7): > 50 µM
IC50 (Jurkat [2]): > 50 µM
SMILES: Cc1ccc(Nc2ncnc3c2ncn3Cc2ccc(C(=O)NO)cc2)cc1S(N)(=O)=O

half-life at 1 µM [3]: > 120 min
inhibition [4]: Active
inhibition [5]: Active
microsomal CLint at 1 µM [6]: < 6 µL/min/mg
inhibition [9]: Active
inhibition [10]: Active
inhibition [12]: Active
inhibition at 10 min, 10 µM (CYP2C9): 42%
IC50 (HCT-116): 21.7 µM
inhibition at 10 min, 10 µM (CYP2D6): 10%
microsomal CLint at 1 µM [16]: 20 µL/min/mg
IC50 (NAMALVA [1]): 0.04 µM
inhibition at 10 min, 10 µM (CYP1A2 [17]): 47%
IC50 [19]: 0.184 µM
IC50 (MCF7): 21.7 µM
IC50 (Jurkat [2]): 0.03 µM
half-life at 1 µM [23]: 35 min
inhibition [24]: Active
SMILES: O=C(NO)c1ccc(Cn2cnc3c(Nc4ccc(Br)cc4F)ncnc32)cc1
inhibition (U-937 [7]): Active
Activity (U-937 [8]): Active
inhibition (NAMALVA [11]): Tde
inhibition (U-937 [13]): Tde
Activity (NAMALVA [14]): Active
inhibition (NAMALVA [15]): Active
inhibition (Jurkat [18]): Tde
Activity (Jurkat [20]): Active
inhibition (U-937 [21]): Dose-Dependent Effect
inhibition (Jurkat [22]): Active

half-life at 1 µM [3]: 33 min
microsomal CLint at 1 µM [6]: 21 µL/min/mg
microsomal CLint at 1 µM [16]: 58 µL/min/mg
half-life at 1 µM [23]: 12 min
SMILES: CCN(CC)CCNC(=O)c1c(C)[nH]c(/C=C2\C(=O)Nc3ccc(F)cc32)c1C [SUNITINIB]

IC50 (HCT-116): > 50 µM
IC50 (NAMALVA [1]): 0.8 µM
IC50 (MCF7): > 50 µM
SMILES: COc1cc(Nc2ncnc3c2ncn3Cc2ccc(C(=O)NO)cc2)cc(OC)c1OC

IC50 (HCT-116): 16.3 µM
IC50 (NAMALVA [1]): 0.5 µM
IC50 (MCF7): > 50 µM
IC50 (Jurkat [2]): 0.6 µM
SMILES: COc1ccc(Nc2ncnc3c2ncn3Cc2ccc(C(=O)NO)cc2)cc1OC

inhibition at 10 min, 40 µM (CYP1A2 [25]): 78%
inhibition at 10 min, 10 µM (CYP2C9): 10%
inhibition at 10 min, 10 µM (CYP2D6): 10%
SMILES: Cc1nc2c([nH]1)c(=O)n(C)c(=O)n2Cc1ccco1 [FURAFYLLINE]

SMILES: CC(=O)N1CCN(c2ccc(OCC3COC(Cn4ccnc4)(c4ccc(Cl)cc4Cl)O3)cc2)CC1 (stereo not drawn) [KETOCONAZOLE]
inhibition at 10 min, 10 µM (CYP2C9): 10%
inhibition at 10 min, 10 µM (CYP1A2 [17]): 10%

IC50 (HCT-116): > 50 µM
IC50 (NAMALVA [1]): > 50 µM
IC50 (MCF7): > 50 µM
IC50 (Jurkat [2]): > 50 µM
SMILES: O=C(NO)c1ccc(Cn2cnc3c(O)ncnc32)cc1

IC50 (HCT-116): > 50 µM
IC50 (NAMALVA [1]): > 50 µM
IC50 (MCF7): > 50 µM
IC50 (Jurkat [2]): > 50 µM
SMILES: O=C(NO)c1cccc(Cn2cnc3c(O)ncnc32)c1

IC50 (HCT-116): > 50 µM
IC50 (NAMALVA [1]): > 50 µM
IC50 (MCF7): > 50 µM
IC50 (Jurkat [2]): > 50 µM
SMILES: O=C(NO)c1ccc(Nc2ncnc3[nH]cnc23)cc1

IC50 (HCT-116): 2.9 µM
IC50 (NAMALVA [1]): 0.26 µM
IC50 (MCF7): 13.2 µM
IC50 (Jurkat [2]): 0.25 µM
SMILES: O=C(NO)c1ccc(Cn2cnc3c(Nc4ccc(Cl)c(C(F)(F)F)c4)ncnc32)cc1

inhibition at 10 min, 10 µM (CYP2C9): 10%
inhibition at 10 min, 10 µM (CYP2D6): 86%
inhibition at 10 min, 10 µM (CYP1A2 [17]): 10%
SMILES: C=C[C@H]1C[N@@]2CC[C@H]1C[C@@H]2[C@@H](O)c1ccnc2ccc(OC)cc12 [QUINIDINE]

IC50 (HCT-116): > 50 µM
IC50 (NAMALVA [1]): > 50 µM
IC50 (MCF7): > 50 µM
IC50 (Jurkat [2]): > 50 µM
SMILES: COC(=O)c1ccc(Cn2cnc3c(Nc4ccc(Cl)c(C(F)(F)F)c4)ncnc32)cc1

inhibition at 10 min, 10 µM (CYP2D6): 10%
inhibition at 10 min, 10 µM (CYP1A2 [17]): 10%
SMILES: Nc1ccc(S(=O)(=O)Nc2ccnn2-c2ccccc2)cc1 [SULFAPHENAZOLE]

IC50 [26]: 2.6 µM
SMILES: O=C(/C=C/c1cccc(S(=O)(=O)Nc2ccccc2)c1)NO [BELINOSTAT]
